The test system of the assay is Vesicular stomatitis virus (VSV). It is filed as cell-based. The settings on record: 30 mM final concentration of OG at 5° C., VSV spiked CRP.

Molecules are shown by their SMILES.

On to `CCCCCCCCO[C@@H]1O[C@H](CO)[C@@H](O)[C@H](O)[C@H]1O` [OG, N-Octyl-β-D-Glucopyranoside], for which the “log 10 reduction factor (LRF)” value is listed as at least 5.3.
